Measured values: PMC3025325, “Identification of a κ-opioid agonist as a potent and selective lead for drug development against human African trypanosomiasis” (Biochemical Pharmacology, 2010)
Counter-ions that a name gives are not always drawn. Like-named read-outs stand apart in the source and are kept apart here.

Columns and labels:
[1] = tested on: bloodstream forms of Trypanosoma brucei; assay: Resazurin cell viability assay, EC50 determinations against T. brucei; assay type: cell-based, T. b. brucei (strain 427)
MRC5 cells = assay: Resazurin cell viability counter-screen, EC50 determinations against mammalian cells; assay type: cell-based, human
[2] = Trypanosoma brucei, 72 h, read-out: EC50 vs. T. brucei
[3] = Trypanosoma brucei, 72 h, LOPAC hits, 3 days incubation, mean of 3 determinations weighted to standard error, read-out: EC50 vs. T. brucei
[4] = Trypanosoma brucei, 72 h, read-out: EC50 of standard drugs against T. brucei
[5] = read-out: EC50 of standard drugs against T. brucei

Q: Which EC50 ([1]; read-out: EC50 vs. T. brucei) does the source give for NC[C@@H]1O[C@H](C23CC4CC(CC(C4)C2)C3)Cc2c1ccc(O)c2O (single isomer, unassigned; (-)) [A-77636 hydrochloride] here?
A: 2210 ± 150 nM

Q: For Nc1ncnc2c1nc(Sc1ccc(Cl)cc1)n2C1OC2COP(=O)(O)O[C@H]2C1O (stereo in doubt) [8-(4-Chlorophenylthio)-cAMP sodium], which Selectivity (MRC5 cells) is on record?
A: 44

Q: Which EC50 ([1]; read-out: EC50 vs. T. brucei) does the source give for N=C(N)SCCc1cccc(CCSC(=N)N)c1 [1,3-PBIT dihydrobromide, Phenylene-1,3-bis(ethane-2-isothiourea) dihydrobromide] here?
A: 1580 ± 80 nM

Q: How did the EC50 [1, 2] turn out when Nc1ccn([C@H]2CC[C@@H](CO)O2)c(=O)n1 [2′,3′-Dideoxycytidine] was run?
A: > 10000 nM

Q: Which EC50 ([1]; read-out: EC50 vs. T. brucei) does the source give for COc1cc2c(CCNC(C)=O)c[nH]c2cc1O [6-Hydroxymelatonin] here?
A: 3310 ± 230 nM

Q: With Nc1ncnc2c1nc(Sc1ccc(Cl)cc1)n2[C@H]1OC2COP(=O)(O)O[C@H]2[C@@H]1O (stereo partly drawn) [8-(4-Chlorophenylthio)-cAMP sodium] as the compound, how does the EC50 ([1]; read-out: EC50 vs. T. brucei) read?
A: 400 ± 54 nM

Q: C=CCc1ccccc1OCC(O)CNC1(C)CCC(C(C)(C)NC(=O)CBr)CC1 (stereo not drawn) [Bromoacetyl alprenolol menthane] was tested. Which EC50 [1, 2] did it give?
A: 1260 ± 140 nM

Q: How did the EC50 [1, 2] turn out when NC(=O)c1cc(N2CC2)c([N+](=O)[O-])cc1[N+](=O)[O-] [CB 1954, 5-(1-Aziridinyl)-2,4-dinitrobenzamide] was run?
A: 1080 ± 90 nM

Q: With Nc1nc2ccc(Cl)cc2c2nc(-c3ccco3)nn12 [CGS-15943, 9-Chloro-2-(2-furyl)[1,2,4]triazolo[1,5-c]quinazolin-5-amine] as the compound, how does the EC50 [1, 2] read?
A: 1970 ± 210 nM

Q: Which EC50 [1, 2] does the source give for O=C(/C=C/c1ccc(O)c(O)c1)OCCc1ccccc1 [Caffeic acid phenethyl ester] here?
A: 1640 ± 130 nM

Q: For CN(N=O)c1cc(O)ccc1O [Dephostatin], which EC50 [1, 2] is on record?
A: > 10000 nM

Q: Which EC50 [1, 2] does the source give for CCCN(CCC)CCc1ccc(O)c(O)c1 [Dipropyldopamine hydrobromide] here?
A: 1290 ± 60 nM

Q: For COc1cccc2c1C(=O)c1c(O)c3c(c(O)c1C2=O)C[C@@](O)(C(=O)CO)C[C@@H]3O[C@H]1C[C@H](N)[C@H](O)[C@H](C)O1 [Doxorubicin], which EC50 (MRC5 cells; Homo sapiens, MRC5, 72 h, read-out: EC50 against MRC5 (control drug)) is on record?
A: 85.9 ± 38.2 nM

Q: With O=C1Nc2ccccc2/C1=C1/Nc2ccccc2/C1=N\O [Indirubin-3′-oxime] as the compound, how does the EC50 ([1]; read-out: EC50 vs. T. brucei) read?
A: 1280 ± 90 nM

Q: For O=C1Cc2c([nH]c3ccc(Br)cc23)-c2ccccc2N1 [Kenpaullone], which EC50 [1, 2] is on record?
A: 1860 ± 270 nM

Q: O=C1CC[C@@]2(O)[C@H]3Cc4ccc(O)c5c4[C@@]2(CCN3CC2CC2)[C@H]1O5 [Naltrexone] was tested. Which EC50 ([1]; Trypanosoma brucei, read-out: EC50 of opioid receptor ligands against T. brucei) did it give?
A: > 100000 nM

Q: C=C1C(=O)O[C@H]2[C@H]1CC/C(C)=C/CC[C@@]1(C)O[C@@H]21 [Parthenolide] was tested. Which EC50 [1, 3] did it give?
A: 1060 ± 80 nM

Q: With CCCN1CCc2cccc3c2[C@H]1Cc1ccc(O)c(O)c1-3 [R(−)-Propylnorapomorphine hydrochloride] as the compound, how does the EC50 ([1]; read-out: EC50 vs. T. brucei) read?
A: 1520 ± 210 nM

Q: CC1=C(/C=C/C(C)=C/C=C/C(C)=C/C(=O)Nc2ccc(O)cc2)C(C)(C)CCC1 [Retinoic acid p-hydroxyanilide] was tested. Which EC50 ([1]; read-out: EC50 vs. T. brucei) did it give?
A: 2230 ± 270 nM

Q: O=[N+]([O-])c1ccc(CSc2ncnc3c2ncn3[C@@H]2O[C@H](CO)[C@@H](O)[C@H]2O)cc1 [S-(4-Nitrobenzyl)-6-thioinosine] was tested. Which EC50 [1, 2] did it give?
A: 3780 ± 550 nM

Q: Which EC50 ([1]; read-out: EC50 vs. T. brucei) does the source give for [N-]=[N+]=Nc1ccc(C(=O)CSC[C@H](NC(=O)CC[C@H](N)C(=O)O)C(=O)NCC(=O)O)cc1 [S-(p-Azidophenacyl)glutathione] here?
A: > 10000 nM

Q: With Cc1nc(-c2ccc(-c3ccc(C(=O)N4CCc5cc6c(cc54)C4(CCN(C)CC4)CO6)cc3)c(C)c2)no1 [SB 224289 hydrochloride, 1′-Methyl-5-([2′-methyl-4′-(5-methyl-1,2,4-oxadiazol-3-yl)biphenyl-4-yl]carbonyl)-2,3,6,7-tetrahydro-spiro(furo[2,3-f]indole-3,4′-piperidine)] as the compound, how does the EC50 [1, 3] read?
A: 1350 ± 280 nM

Q: What does the source list for Nc1nc(N)nc(Nc2ccc([As]3SCC(CO)S3)cc2)n1 (stereo not drawn) [melarsoprol]?
A: EC50 [1, 4]: 7.52 ± 0.28 nM; EC50 [1, 5]: 8 nM

Q: With CC1CS(=O)(=O)CCN1/N=C/c1ccc([N+](=O)[O-])o1 (stereo not drawn) [nifurtimox] as the compound, how does the EC50 [1, 4] read?
A: 1800 nM

Q: And the EC50 [1, 5]?
A: 1810 ± 130 nM

Q: For Buprenorphine, which “Activity against T. brucei (in words)” value [1] is on record?
A: weak activity
